Assay results reported in paper PMC6437697 (Journal of Medicinal Chemistry, 2019).

What was measured:
Experiment in all cases: KINOMEscan
Type in all cases: binding
Settings in all cases: read-out: % control activity remaining
SYK = target: T1, SYK (Homo sapiens, UniProt P43405)
T1 construct: purchased Eurofins DiscoverX KINOMEscan

SIK2 = target: T2, SIK2 (Homo sapiens, UniProt Q9H0K1)
T2 construct: purchased Eurofins DiscoverX KINOMEscan

CHEK1 = target: T3, CHEK1 (Homo sapiens, UniProt O14757)
T3 construct: purchased Eurofins DiscoverX KINOMEscan
T3 sequence (O14757 1-476): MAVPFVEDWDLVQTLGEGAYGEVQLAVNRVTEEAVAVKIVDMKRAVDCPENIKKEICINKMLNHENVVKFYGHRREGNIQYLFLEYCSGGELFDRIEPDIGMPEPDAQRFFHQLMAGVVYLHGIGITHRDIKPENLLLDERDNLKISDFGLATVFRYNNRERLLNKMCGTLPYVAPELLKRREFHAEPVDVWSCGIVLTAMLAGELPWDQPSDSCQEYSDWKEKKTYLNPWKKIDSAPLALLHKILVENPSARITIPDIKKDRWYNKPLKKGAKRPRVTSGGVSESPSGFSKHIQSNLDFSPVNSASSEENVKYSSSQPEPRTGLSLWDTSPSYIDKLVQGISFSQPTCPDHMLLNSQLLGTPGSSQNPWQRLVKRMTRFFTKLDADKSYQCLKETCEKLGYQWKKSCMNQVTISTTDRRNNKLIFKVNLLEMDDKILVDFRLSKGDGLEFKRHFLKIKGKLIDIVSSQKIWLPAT

TIE1 = target: T4, TIE1 (Homo sapiens, UniProt P35590)
T4 construct: purchased Eurofins DiscoverX KINOMEscan
T4 sequence (P35590 22-1138): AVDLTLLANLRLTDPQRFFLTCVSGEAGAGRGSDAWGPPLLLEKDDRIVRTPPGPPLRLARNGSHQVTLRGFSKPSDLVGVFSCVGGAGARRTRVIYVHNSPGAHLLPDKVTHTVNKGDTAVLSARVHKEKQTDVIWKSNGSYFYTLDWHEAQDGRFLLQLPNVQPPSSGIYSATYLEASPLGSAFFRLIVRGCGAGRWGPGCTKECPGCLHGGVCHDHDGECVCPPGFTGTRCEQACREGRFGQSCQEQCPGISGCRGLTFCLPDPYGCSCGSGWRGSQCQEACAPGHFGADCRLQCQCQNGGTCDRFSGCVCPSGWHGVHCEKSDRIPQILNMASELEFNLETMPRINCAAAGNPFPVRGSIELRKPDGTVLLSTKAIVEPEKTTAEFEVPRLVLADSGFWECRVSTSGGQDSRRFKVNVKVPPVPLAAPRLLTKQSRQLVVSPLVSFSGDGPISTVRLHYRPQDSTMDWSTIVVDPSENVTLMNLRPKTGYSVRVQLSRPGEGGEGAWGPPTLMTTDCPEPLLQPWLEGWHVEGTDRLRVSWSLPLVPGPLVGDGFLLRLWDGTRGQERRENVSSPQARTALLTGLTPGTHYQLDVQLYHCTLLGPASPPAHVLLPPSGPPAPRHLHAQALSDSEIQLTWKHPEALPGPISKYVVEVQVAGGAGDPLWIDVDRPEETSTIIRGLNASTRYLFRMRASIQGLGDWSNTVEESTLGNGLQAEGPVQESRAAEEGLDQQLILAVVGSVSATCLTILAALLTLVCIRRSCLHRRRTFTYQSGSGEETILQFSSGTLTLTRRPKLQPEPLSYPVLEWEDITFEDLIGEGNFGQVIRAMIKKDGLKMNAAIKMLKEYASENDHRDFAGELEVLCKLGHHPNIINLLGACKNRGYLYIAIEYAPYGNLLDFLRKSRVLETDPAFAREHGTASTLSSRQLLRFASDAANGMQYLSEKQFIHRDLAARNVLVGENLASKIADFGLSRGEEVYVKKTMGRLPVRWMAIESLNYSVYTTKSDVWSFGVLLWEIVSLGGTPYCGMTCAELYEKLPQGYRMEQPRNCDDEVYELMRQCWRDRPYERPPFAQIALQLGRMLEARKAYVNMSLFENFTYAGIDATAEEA

AURKC = target: T5, AURKC (Homo sapiens, UniProt Q9UQB9)
T5 construct: purchased Eurofins DiscoverX KINOMEscan
T5 sequence (Q9UQB9 1-309): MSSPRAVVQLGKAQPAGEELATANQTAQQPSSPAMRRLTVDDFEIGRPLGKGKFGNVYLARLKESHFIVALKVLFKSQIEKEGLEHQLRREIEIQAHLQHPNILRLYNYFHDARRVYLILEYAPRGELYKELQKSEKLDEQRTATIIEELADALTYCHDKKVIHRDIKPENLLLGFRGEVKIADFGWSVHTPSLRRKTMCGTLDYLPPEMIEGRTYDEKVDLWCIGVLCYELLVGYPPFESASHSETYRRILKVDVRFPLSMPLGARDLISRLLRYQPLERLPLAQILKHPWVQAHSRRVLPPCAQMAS

FLT3(K663Q) = target: T6, FLT3(K663Q) (Homo sapiens, UniProt P36888, K663Q)
T6 construct: purchased Eurofins DiscoverX KINOMEscan
T6 sequence (P36888 27-993 K663Q): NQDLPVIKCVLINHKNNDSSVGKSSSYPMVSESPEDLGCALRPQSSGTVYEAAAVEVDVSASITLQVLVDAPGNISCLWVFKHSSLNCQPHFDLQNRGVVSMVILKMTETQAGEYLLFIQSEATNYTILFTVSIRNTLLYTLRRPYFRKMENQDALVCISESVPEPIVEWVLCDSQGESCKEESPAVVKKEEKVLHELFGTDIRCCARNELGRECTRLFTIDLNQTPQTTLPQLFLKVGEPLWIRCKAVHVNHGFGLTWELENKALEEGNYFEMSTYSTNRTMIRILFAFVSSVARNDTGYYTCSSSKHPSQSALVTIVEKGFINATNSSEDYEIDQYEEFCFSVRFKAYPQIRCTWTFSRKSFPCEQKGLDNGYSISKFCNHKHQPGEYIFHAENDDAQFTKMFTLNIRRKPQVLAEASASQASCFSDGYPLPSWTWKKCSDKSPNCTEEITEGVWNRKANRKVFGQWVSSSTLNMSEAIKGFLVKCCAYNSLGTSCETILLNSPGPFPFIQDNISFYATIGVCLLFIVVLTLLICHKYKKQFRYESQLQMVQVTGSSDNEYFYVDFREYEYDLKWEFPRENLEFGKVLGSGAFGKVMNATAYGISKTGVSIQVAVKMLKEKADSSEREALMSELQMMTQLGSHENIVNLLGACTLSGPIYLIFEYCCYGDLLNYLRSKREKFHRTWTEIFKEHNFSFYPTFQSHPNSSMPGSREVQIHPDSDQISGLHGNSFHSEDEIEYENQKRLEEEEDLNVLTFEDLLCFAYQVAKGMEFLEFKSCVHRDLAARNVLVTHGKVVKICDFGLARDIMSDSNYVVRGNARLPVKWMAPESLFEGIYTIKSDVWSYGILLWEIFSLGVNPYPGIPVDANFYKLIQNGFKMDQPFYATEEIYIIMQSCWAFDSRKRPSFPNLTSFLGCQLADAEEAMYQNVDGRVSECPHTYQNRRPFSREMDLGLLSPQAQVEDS

IRAK3 = target: T7, IRAK3 (Homo sapiens, UniProt Q9Y616)
T7 construct: purchased Eurofins DiscoverX KINOMEscan
T7 sequence (Q9Y616 1-596): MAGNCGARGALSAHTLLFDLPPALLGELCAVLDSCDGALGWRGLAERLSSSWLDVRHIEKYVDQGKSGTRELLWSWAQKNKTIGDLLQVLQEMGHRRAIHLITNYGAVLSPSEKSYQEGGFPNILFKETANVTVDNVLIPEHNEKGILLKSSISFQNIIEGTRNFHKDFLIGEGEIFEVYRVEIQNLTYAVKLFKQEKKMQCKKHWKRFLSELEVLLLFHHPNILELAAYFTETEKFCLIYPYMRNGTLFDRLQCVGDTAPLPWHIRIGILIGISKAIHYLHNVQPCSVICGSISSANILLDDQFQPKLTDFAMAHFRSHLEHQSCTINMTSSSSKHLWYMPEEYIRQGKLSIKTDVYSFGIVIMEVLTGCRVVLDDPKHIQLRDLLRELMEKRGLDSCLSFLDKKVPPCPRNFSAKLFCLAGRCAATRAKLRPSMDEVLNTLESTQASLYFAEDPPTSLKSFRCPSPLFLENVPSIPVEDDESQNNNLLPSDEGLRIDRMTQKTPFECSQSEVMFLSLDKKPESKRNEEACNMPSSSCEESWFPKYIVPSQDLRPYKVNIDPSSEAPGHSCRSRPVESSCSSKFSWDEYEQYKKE

CDC2L1 = target: T8, CDC2L1 (Homo sapiens, UniProt P21127)
T8 construct: purchased Eurofins DiscoverX KINOMEscan
T8 sequence (P21127 whole entry): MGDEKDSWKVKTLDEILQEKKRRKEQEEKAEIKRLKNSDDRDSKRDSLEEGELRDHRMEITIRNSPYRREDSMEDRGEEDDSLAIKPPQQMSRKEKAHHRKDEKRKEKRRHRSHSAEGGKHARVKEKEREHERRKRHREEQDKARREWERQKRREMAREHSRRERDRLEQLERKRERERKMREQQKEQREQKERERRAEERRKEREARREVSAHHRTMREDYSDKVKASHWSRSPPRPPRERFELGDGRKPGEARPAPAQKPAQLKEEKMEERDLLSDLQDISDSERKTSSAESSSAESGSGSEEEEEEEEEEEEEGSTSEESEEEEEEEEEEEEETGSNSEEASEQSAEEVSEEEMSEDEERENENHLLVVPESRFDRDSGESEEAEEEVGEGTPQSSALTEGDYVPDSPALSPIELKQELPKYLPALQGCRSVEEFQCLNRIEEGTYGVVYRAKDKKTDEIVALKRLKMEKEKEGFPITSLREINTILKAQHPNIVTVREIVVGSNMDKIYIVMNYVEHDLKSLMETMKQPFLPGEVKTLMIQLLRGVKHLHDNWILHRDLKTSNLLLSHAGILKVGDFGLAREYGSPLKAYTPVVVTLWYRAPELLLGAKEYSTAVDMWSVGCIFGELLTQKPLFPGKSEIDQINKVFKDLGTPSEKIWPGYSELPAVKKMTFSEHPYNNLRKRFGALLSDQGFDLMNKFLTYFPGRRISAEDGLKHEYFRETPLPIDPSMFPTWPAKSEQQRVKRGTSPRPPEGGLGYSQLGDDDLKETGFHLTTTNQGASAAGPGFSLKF

T2 sequence (Q9H0K1 whole entry): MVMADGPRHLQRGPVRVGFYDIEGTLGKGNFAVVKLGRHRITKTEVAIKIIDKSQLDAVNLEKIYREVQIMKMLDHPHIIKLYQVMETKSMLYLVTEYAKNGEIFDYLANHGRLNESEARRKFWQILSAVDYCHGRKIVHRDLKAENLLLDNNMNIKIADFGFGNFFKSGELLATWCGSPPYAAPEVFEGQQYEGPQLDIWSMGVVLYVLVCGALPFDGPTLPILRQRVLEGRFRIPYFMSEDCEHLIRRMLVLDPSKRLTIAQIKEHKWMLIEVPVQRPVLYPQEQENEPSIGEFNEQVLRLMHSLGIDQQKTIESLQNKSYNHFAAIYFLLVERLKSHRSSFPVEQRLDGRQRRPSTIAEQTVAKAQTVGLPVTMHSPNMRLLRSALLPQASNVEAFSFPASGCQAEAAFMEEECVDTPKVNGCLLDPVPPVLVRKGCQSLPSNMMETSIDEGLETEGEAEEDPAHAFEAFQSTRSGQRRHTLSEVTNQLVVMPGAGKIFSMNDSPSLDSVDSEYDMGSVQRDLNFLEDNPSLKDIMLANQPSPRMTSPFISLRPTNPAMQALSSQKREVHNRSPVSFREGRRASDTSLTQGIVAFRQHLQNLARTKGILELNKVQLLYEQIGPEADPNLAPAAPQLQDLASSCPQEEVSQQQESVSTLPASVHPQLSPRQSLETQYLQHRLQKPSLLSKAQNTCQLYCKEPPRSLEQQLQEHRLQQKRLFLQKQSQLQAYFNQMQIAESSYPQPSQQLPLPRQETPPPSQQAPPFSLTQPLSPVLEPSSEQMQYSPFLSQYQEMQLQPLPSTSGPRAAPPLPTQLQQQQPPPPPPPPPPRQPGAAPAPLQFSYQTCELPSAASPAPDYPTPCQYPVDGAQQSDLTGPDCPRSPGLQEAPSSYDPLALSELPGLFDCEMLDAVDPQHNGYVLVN

Compound | remaining binding at 1 µM (SYK) [%] | remaining binding at 1 µM (SIK2) [%] | remaining binding at 1 µM (CHEK1) [%] | remaining binding at 1 µM (TIE1) [%] | remaining binding at 1 µM (AURKC) [%] | remaining binding at 1 µM (FLT3(K663Q)) [%] | remaining binding at 1 µM (IRAK3) [%] | remaining binding at 1 µM (CDC2L1) [%]
Clc1cc(NCC2CC2)c2ncc(-c3ccc4[nH]ncc4c3)n2n1 [compound 2, 6-Chloro-N-(cyclopropylmethyl)-3-(1H-indazol-5-yl)imidazo[1,2-b]pyridazin-8-amine] | 97 | 73 | 88 | 99 | 92 | 3.8 | 100 | 100
O=C(CN1CCOCC1)N[C@H]1CC[C@H](Nc2cc(Cl)nn3c(-c4ccc5[nH]ncc5c4)cnc23)CC1 [compound 26] | 100 | 97 | 100 | 67 | 58 | 13 | 49 | 100
CN1CCC(CNc2cc(Cl)nn3c(-c4cc5nc(Nc6ccccc6)[nH]c5cc4F)cnc23)CC1 [compound 31, 6-Chloro-3-(6-fluoro-2-(phenylamino)-1H-benzo[d]imidazol-5-yl)-N-((1-methylpiperidin-4-yl)methyl)imidazo[1,2-b]pyridazin-8-amine] | 92 | 100 | 100 | 84 | 92 | 83 | 95 | 92
